According to patent US20110207751A1, “HETEROCYCLIC COMPOUNDS AND USES AS ANTICANCER AGENTS” (priority 2010, published 2011):
Counter-ions that a name gives are not always drawn.

Assays:
[1] = system: HepG2 cells (human liver cancer cell line); test: Inhibition of cell proliferation, xCelligence cell index; assay type: cell-based; settings: 72 hr post compound treatment, read-out: calculated IC50
Excerpt: The biological activity of compounds disclosed herein was monitored and profiled using the Real-Time Cell Electronic Sensing (RT-CES®) system from ACEA Biosciences, Inc. The RT-CES system utilizes cell-substrate impedance technology to monitor cellular behavior inside tissue culture wells in a microtiter plate format. The technology features in the integration of molecular and cell biology with microelectronics and is based on the electronic detection of biological assay process. […]
For measurement of cell-substrate or cell-electrode impedance using RT-CES technology, microelectrodes having appropriate geometries are fabricated onto the bottom surfaces of microtiter plate or similar device, facing into the wells. […] When there are changes to the biological status of the cells analogue electronic readout signals are measured automatically and in real time, and are converted to digital signals for processing and for analysis. In a RT-CES system, a cell index (arbitrary representation of change in impedance) is automatically derived and provided based on measured electrode impedance values. […]
To quantify cell status based on the measured cell-electrode impedance, a parameter termed Cell Index is derived. Cell Index is a quantitative measure of the status of the cells in an electrode-containing well. […]

[2] = Body weight and animal number of carrier mice, MKN45 xenograft test; assay type: in vivo, BALB/c immunodeficient nude mice; settings: for Animal No. end: 7 at beginning
Method: To evaluate the in vivo anticancer efficacy of COMPOUND O, MKN45 human gastric-intestinal cancer xenograft models in immunodeficient nude mice was tested. All the mouse models are maintained in the Pharmacology Lab of ACEA Bio (Hangzhou) CO., Ltd. The BALB/c immunodeficient nude mice were purchased from Shanghai SLAC Laboratory Animal, certification number: SCXKA (Shanghai) 2007-0005. The mouse weight was 19±1 g. Only female mice were used in this study. The numbers of animals tested were as follow: 7 for each dose group, 7 for positive control group and 7 for negative control group.
Test Control. For negative control, each mouse was administered orally with the solvent only having the same volume and same concentration as those used in COMPOUND O test, 120 mg/kg once every other day (qod) for 18 days. […]
Preparation an Administration of Test Compounds. COMPOUND O was dissolved in 25% phospholipid (S75) and 75% polyvinylpyrrolidone (PL-PVP) then further diluted to 8 mg/ml in 0.9% NaCl aqueous solution. Different dosages of COMPOUND O between 120 mg/kg qod (once every other day) and 160 mg/kg q3d (once every 3 days) were used in the study.
All used materials including animal food, animal cage, supporting materials and apparatus contacted by animals, were high-pressure sterilized. Nude mice were maintained in laminar flow shelves under SPF condition. After tumor transplantation, mouse weight and tumor size in each compound dosage group were dynamically monitored and plotted. The tumor size was determined by measuring the major axis (a) and minor axis (b) of the tumor, and tumor volume was calculated according to the formula: […]

[3] = system: tubulin (vinblastine-binding site); test: Spin column assay with [^3H]vinblastine; settings: tubulin with [^3H]vinblastine and unlabeled competitor, 37° C. 1 h
Method: Spin column assay. […] The reaction mixtures were incubated at 37° C. for 1 h. The samples were loaded onto Illustra™ MicroSpin™ G-50 columns (GE Healthcare) previously equilibrated with the buffer solution. The columns were placed into 1.5-ml tubes and spun at 750 g for 2 min at room temperature, and radioactivity in the flow-through was analyzed by a scintillation counter.

[4] = system: A549 human lung cancer cells; test: Cell Death Detection ELISA, apoptosis; assay type: cell-based; settings: 37 nM, 24 hr, 48 hr, 72 hr
Method: To test if COMPOUND O compound induces apoptosis in cancer cells, the A549 human lung cancer cells were treated with 37 nM COMPOUND O and 37 nM paclitaxel. Cell apoptosis and death detection was measured by Cell Death Detection ELISA kit (Roche Applied Sciences), according to the assay protocol from the kit. Briefly, 5000 cells were seeded into each well of the 96-well plate. […] Cells were harvested and lysed 24 hr, 48 hr or 72 hr post drug treatment. Twenty microliters of lysate were removed and transferred to streptavidin-coated microplate and then incubated with anti-histone-biotin and anti-DNA-POD antibodies for 2 hr followed by adding 2,2′-azinobis-3-ethylbenzthiazoline-sulphonic-acid substrate for color development. The plate was measured at an absorbance of 405 and 490 nm in a Beckman Multimode DTX880 plate reader.

## CCc1ccc(Nc2nc(-c3c(C)nc4sccn34)cs2)cc1 [COMPOUND O, 2-(4-ethylphenyl)amino-4-(6-methylimidazo[2,1-b]thiazol-5-yl)-thiazole monohydrobromide]
[1]
  IC50: 25.9 nM
[2]; 120 mg/kg ig × 9 qod
  Animal weight (g) Beginning: 19 g
  Animal weight (g) end: 16.7 g
  Body weight of mice (g) 1 day: 19.03 ± 0.76 g
  Body weight of mice (g) 4 day: 19.53 ± 0.71 g
  Body weight of mice (g) 8 day: 18.24 ± 1.10 g
  Body weight of mice (g) 11 day: 18.21 ± 1.02 g
  Body weight of mice (g) 16 day: 17.09 ± 1.09 g
  Body weight of mice (g) 18 day: 16.71 ± 0.97 g
  Animal No. end: 7/7
[2]; 160 mg/kg ig × 6 q3d
  Animal weight (g) Beginning: 18.3 g
  Animal weight (g) end: 15.7 g
  Body weight of mice (g) 1 day: 18.37 ± 0.66 g
  Body weight of mice (g) 4 day: 19.10 ± 0.73 g
  Body weight of mice (g) 8 day: 17.33 ± 1.52 g
  Body weight of mice (g) 11 day: 17.15 ± 1.33 g
  Body weight of mice (g) 16 day: 16.43 ± 1.47 g
  Body weight of mice (g) 18 day: 15.73 ± 1.31 g
  Animal No. end: 7/3
[3]
  amount of [^3H]vinblastine in the flow-through: neither colchicine nor COMPOUND O affected the amount of [^3H]vinblastine in the flow-through
[4]
  apoptotic signal: strong apoptotic signals (starting from 48 hr post drug treatment)

## COc1cc([C@@H]2c3cc4c(cc3[C@@H](O[C@@H]3O[C@@H]5CO[C@@H](C)O[C@H]5[C@H](O)[C@H]3O)[C@H]3COC(=O)[C@H]23)OCO4)cc(OC)c1O [Etoposide, reference compound]
[2]; 50 mg/kg ig × 6 q3d
  Animal weight (g) Beginning: 18.9 g
  Animal weight (g) end: 16.9 g
  Body weight of mice (g) 1 day: 18.94 ± 0.92 g
  Body weight of mice (g) 4 day: 19.57 ± 1.16 g
  Body weight of mice (g) 8 day: 17.17 ± 0.85 g
  Body weight of mice (g) 11 day: 17.26 ± 1.24 g
  Body weight of mice (g) 16 day: 16.94 ± 0.91 g
  Body weight of mice (g) 18 day: 16.93 ± 0.75 g
  Animal No. end: 7/7

## CC(=O)O[C@H]1C(=O)[C@@]2(C)[C@H]([C@H](OC(=O)c3ccccc3)[C@]3(O)C[C@H](OC(=O)[C@H](O)[C@@H](NC(=O)c4ccccc4)c4ccccc4)C(C)=C1C3(C)C)[C@]1(OC(C)=O)CO[C@@H]1C[C@@H]2O [paclitaxel]
[4]
  apoptotic signal: strong apoptotic signals (starting from 48 hr post drug treatment)
